Entries after “also recorded” stand apart in the source; their conditions may differ. Like-named read-outs stand apart in the source and are kept apart here.
Experiments:
SU-DHL-6 cells = assay: SU-DHL-6 cell proliferation assay (CellTiter-Glo); format: cell-based, human; conditions: for GI50: Homo sapiens, SU-DHL-6 cell growth inhibition, CellTiter-Glo, mean ± SD from two separate experiments; for SU-DHL-6 cell proliferation inhibition (in words): qualitative statement
Experimental: The selective PI3Kδ inhibitors 15a and 15b were further evaluated for their antiproliferative activity against human B-cell SU-DHL-6.
Cell proliferation was evaluated by The CellTiter-Glo luminescent cell viability assay (Promega, Shanghai, China) was used to evaluate the inhibitory activity of compounds 15a and 15b following the manufacturer’s protocol. In brief, SU-DHL-6 (ATCC) cells were seeded in 96-well plates (Corning, Los Altos, MA, USA) at density of 1 × 10^4 cells per well, and incubated with medium alone or with the tested compounds at the indicated concentrations (50 μM in DMSO, 3-fold dilution, in duplicate for 10 concentrations). 50 μL CellTiter-Glo (Promega, Shanghai, China) reagent was added to each well to induce cell lysis, and the plate was incubated at room temperature for 10 min to stabilize luminescent signal. After 100 μL of the mixture from each well was transferred to a new 96-well black plate, the […] signal was read on EnVision (Shanghai, China) and the data were analysized by XLFit 4 software (IDBS, Berlin, Germany).

PI3Kδ = PI3Kδ (Homo sapiens, UniProt O00329); assay: PI3Kδ kinase assay (ADP-Glo luminescent assay); format: biochemical; conditions: for IC50: ADP-Glo, mean ± SD from two separate experiments, Table 1 and text, read-out: PI3Kδ inhibitory activity IC50; for PI3Kδ inhibitory activity (in words): qualitative statement; for decrease in PI3Kδ potency on introduction of 7-fluorine: compared with the non-fluorinated analogue
PI3Kβ [1] = target: T1, PI3Kβ (Homo sapiens, UniProt P42338); assay: PI3Kβ kinase assay (ADP-Glo luminescent assay); format: biochemical; conditions: for IC50: ADP-Glo, mean ± SD from two separate experiments
PI3Kγ [2] = target: T2, PI3Kγ (Homo sapiens, UniProt P48736); assay: PI3Kγ kinase assay (ADP-Glo luminescent assay); format: biochemical; conditions: mean ± SD from two separate experiments
PI3Kα [3] = target: T3, PI3Kα (Homo sapiens, UniProt P42336); assay: PI3Kα kinase assay (kinase-Glo luminescent assay); format: biochemical; conditions: for IC50: kinase-Glo, mean ± SD from two separate experiments
PI3Kγ [4] = target: T2, PI3Kγ; parameters: method as in PMID 29601991; conditions: quinazolinone leads, previous work; ref [33]; cited from earlier work
PI3Kα [5] = target: T3, PI3Kα; parameters: method as in PMID 29601991; conditions: quinazolinone leads, previous work; ref [33]; cited from earlier work
PI3Kβ [6] = target: T1, PI3Kβ; parameters: method as in PMID 29601991; conditions: quinazolinone leads, previous work; ref [33]; cited from earlier work

T3 sequence (P42336 whole entry): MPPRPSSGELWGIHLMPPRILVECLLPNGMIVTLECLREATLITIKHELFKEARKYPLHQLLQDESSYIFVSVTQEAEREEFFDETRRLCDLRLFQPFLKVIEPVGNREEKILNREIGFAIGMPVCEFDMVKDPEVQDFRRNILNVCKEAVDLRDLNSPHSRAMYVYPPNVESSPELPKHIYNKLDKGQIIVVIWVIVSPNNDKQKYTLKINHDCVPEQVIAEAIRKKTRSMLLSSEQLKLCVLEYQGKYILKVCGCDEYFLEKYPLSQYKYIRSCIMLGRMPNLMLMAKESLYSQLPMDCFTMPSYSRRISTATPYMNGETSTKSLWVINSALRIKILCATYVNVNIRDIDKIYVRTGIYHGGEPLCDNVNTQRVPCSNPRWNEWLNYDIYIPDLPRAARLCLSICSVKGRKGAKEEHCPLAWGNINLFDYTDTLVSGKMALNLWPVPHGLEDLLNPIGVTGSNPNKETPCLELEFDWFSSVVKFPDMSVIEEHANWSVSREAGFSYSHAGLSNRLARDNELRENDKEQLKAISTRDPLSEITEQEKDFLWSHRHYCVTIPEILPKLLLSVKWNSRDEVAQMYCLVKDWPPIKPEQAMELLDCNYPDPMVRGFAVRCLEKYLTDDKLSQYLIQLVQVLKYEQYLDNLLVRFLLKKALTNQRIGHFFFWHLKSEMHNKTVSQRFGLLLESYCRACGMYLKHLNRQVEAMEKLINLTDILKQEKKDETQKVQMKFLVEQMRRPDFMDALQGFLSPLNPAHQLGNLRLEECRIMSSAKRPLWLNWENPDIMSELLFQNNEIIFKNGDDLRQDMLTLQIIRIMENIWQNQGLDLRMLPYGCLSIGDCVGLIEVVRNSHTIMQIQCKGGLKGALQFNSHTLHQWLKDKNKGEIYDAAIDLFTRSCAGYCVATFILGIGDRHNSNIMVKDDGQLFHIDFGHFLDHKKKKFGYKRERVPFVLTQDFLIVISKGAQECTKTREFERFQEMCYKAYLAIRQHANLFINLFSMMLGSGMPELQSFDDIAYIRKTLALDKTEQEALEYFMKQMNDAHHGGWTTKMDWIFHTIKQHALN
T3 sequence (P27986 whole entry partner): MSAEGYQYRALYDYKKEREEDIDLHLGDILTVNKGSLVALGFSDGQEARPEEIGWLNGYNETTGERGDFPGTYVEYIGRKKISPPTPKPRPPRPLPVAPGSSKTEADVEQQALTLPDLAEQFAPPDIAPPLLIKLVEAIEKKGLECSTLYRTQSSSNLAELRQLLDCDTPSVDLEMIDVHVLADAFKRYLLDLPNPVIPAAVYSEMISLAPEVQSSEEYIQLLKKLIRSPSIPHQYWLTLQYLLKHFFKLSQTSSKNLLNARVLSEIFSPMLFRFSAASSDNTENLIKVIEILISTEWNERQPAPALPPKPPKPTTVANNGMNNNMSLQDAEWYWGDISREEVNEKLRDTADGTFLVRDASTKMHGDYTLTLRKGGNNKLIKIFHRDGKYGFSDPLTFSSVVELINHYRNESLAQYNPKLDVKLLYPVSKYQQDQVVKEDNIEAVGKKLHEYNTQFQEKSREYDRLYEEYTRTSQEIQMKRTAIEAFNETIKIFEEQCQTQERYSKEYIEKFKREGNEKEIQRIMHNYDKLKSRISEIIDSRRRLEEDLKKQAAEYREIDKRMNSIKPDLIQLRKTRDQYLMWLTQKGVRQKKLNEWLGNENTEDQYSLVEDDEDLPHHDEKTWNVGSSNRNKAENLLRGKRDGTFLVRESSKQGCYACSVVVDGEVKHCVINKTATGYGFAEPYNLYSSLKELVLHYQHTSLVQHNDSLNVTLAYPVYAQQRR
Chain of PI3Kδ (O00329 whole entry): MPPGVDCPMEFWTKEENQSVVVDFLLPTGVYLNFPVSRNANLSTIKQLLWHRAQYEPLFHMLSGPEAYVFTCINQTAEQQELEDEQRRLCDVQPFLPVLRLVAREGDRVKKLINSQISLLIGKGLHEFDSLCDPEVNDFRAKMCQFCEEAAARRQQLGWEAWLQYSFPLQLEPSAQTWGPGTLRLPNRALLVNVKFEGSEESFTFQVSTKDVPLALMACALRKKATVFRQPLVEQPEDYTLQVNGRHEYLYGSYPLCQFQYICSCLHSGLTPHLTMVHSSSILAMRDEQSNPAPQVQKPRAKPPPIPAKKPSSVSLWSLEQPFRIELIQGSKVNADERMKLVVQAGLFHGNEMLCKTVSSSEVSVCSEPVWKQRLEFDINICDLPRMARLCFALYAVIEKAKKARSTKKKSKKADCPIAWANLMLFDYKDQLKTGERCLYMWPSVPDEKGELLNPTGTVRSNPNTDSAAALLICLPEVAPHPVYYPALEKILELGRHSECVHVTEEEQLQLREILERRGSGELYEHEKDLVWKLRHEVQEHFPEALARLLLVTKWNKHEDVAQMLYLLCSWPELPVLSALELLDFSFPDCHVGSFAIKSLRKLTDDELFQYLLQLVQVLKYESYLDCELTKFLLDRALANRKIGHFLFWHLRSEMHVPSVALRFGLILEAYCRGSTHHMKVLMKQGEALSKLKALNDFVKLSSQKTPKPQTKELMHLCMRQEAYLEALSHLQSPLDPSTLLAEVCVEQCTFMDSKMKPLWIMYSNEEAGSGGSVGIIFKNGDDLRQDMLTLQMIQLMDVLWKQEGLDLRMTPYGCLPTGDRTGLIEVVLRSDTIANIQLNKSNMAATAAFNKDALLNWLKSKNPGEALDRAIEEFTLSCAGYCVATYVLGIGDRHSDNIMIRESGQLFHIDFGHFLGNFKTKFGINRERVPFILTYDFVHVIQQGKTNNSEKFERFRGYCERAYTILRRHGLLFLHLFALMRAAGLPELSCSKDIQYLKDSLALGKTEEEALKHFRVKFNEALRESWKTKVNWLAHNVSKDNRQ
Chain of PI3Kδ (P27986 whole entry partner): as the sequence (P27986 whole entry partner) above
T2 sequence (P48736 whole entry): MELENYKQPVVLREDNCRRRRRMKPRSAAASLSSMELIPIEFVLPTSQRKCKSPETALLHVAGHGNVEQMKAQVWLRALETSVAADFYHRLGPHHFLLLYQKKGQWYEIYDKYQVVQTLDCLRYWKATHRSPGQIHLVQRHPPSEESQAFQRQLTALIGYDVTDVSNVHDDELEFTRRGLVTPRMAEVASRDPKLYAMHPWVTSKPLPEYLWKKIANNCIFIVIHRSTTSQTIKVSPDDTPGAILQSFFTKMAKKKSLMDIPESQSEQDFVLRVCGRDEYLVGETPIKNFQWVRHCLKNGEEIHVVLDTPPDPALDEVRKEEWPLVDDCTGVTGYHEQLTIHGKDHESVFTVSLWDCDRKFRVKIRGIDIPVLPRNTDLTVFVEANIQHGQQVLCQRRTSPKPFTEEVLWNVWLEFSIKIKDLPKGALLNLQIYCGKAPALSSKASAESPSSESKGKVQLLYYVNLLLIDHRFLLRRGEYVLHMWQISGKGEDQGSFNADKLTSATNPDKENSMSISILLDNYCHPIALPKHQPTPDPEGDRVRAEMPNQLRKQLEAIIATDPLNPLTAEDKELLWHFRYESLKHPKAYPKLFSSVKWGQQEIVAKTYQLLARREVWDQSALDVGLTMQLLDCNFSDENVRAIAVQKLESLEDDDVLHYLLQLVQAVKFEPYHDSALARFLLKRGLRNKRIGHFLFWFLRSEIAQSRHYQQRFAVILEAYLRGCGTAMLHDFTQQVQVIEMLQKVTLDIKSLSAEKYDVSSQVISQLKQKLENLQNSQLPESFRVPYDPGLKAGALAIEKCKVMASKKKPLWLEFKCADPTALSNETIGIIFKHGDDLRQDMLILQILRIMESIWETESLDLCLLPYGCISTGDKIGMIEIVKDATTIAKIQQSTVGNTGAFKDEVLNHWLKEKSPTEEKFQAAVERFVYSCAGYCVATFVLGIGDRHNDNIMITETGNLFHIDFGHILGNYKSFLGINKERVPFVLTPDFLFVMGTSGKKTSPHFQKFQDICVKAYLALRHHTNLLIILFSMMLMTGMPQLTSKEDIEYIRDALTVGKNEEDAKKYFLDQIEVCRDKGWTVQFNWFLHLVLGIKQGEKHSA
T1 sequence (P42338 whole entry): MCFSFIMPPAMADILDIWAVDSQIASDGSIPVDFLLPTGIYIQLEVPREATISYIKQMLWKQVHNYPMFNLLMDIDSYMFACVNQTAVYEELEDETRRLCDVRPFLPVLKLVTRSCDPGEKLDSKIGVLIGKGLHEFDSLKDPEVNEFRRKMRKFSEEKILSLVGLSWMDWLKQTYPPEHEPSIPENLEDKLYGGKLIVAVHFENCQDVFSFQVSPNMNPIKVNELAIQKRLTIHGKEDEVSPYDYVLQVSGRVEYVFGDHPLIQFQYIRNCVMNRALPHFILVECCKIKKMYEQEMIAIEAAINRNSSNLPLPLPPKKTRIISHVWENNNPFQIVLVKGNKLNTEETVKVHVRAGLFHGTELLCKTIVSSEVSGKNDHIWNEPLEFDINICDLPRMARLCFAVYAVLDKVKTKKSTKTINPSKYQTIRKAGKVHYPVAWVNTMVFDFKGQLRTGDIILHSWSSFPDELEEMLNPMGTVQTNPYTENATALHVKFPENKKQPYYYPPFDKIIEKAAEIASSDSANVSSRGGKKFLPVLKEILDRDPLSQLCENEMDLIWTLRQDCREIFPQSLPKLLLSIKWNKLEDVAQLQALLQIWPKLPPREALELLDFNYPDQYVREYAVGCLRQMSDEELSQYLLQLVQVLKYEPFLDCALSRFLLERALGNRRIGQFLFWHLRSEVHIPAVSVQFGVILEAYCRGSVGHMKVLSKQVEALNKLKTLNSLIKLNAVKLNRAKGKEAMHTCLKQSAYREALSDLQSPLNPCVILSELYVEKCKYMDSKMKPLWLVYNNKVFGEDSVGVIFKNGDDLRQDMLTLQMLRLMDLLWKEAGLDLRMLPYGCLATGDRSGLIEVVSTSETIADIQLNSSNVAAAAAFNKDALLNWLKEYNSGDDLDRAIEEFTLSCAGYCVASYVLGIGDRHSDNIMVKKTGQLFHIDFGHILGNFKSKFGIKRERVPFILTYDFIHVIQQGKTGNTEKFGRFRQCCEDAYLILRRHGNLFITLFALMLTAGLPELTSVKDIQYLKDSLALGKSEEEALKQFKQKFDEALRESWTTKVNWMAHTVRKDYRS
T1 sequence (P27986 whole entry partner): as the sequence (P27986 whole entry partner) above

| SMILES | IC50 (PI3Kδ) [µM] | melting point [°C] | PI3Kδ inhibitory activity (in words) (PI3Kδ) | further results |
| --- | --- | --- | --- | --- |
| CC[C@H](Nc1ncnc2[nH]cnc12)c1nc2cccc(F)c2c(=O)n1-c1ccccc1 [CAL-101, reference compound] | – | – | – | GI50 (SU-DHL-6 cells): 0.039 ± 0.011 µM |
| Cc1cccc(C)c1N1C(Cn2nc(-c3ccc4[nH]ccc4c3)c3c(N)ncnc32)=Nc2ccc(F)cc2S1(=O)=O [16a, 3-((4-Amino-3-(1H-indol-5-yl)-1H-pyrazolo[3,4-d]pyrimidin-1-yl)methyl)-2-(2,6-dimethylphenyl)-7-fluoro-2H-benzo[e][1,2,4]thiadiazine 1,1-dioxide] | > 1 | 132 to 133 | lost its activity | – |
| Cc1cccc(C)c1N1C(Cn2nc(-c3ccc4[nH]ccc4c3)c3c(N)ncnc32)=Nc2ccccc2S1(=O)=O [15a, 3-((4-Amino-3-(1H-indol-5-yl)-1H-pyrazolo[3,4-d]pyrimidin-1-yl)methyl)-2-(2,6-dimethylphenyl)-2H-benzo[e][1,2,4]thiadiazine 1,1-dioxide] | 0.217 ± 0.028 | – | – | IC50 (PI3Kβ [1]): 30.6 ± 0.875 µM; IC50 (PI3Kγ [2]): > 50 µM; GI50 (SU-DHL-6 cells): 2.13 ± 0.09 µM; SU-DHL-6 cell proliferation inhibition (in words) (SU-DHL-6 cells): significantly inhibited; also recorded: high antiproliferative potency; IC50 (PI3Kα [3]): > 50 µM |
| Cc1cccc(C)c1N1C(Cn2nc(-c3ccc4c(c3)OCO4)c3c(N)ncnc32)=Nc2ccccc2S1(=O)=O [15f, 3-((4-Amino-3-(benzo[d][1,3]dioxol-5-yl)-1H-pyrazolo[3,4-d]pyrimidin-1-yl)methyl)-2-(2,6-dimethyl-phenyl)-2H-benzo[e][1,2,4]thiadiazine 1,1-dioxide] | > 1 | > 250 | not tolerated | – |
| COc1ccc(-c2nn(CC3=Nc4ccc(F)cc4S(=O)(=O)N3c3c(C)cccc3C)c3ncnc(N)c23)cc1OC [16b, 3-((A-amino-3-(3,4-dimethoxyphenyl)-1H-pyrazolo[3,4-d]pyrimidin-1-yl)methyl)-2-(2,6-dimethylphenyl)-7-fluoro-2H-benzo[e][1,2,4]thiadiazine 1,1-dioxide] | 0.518 ± 0.062 | 229 to 230 | – | decrease in PI3Kδ potency on introduction of 7-fluorine (PI3Kδ): ~2 fold |
| COc1ccc(-c2nn(CC3=Nc4ccccc4S(=O)(=O)N3c3c(C)cccc3C)c3ncnc(N)c23)cn1 [15d, 3-((4-Amino-3-(6-methoxypyridin-3-yl)-1H-pyrazolo[3,4-d]pyrimidin-1-yl)methyl)-2-(2,6-dimethylphenyl)-2H-benzo[e][1,2,4]thiadiazine 1,1-dioxide] | 0.498 ± 0.033 | – | – | – |
| Cc1cccc(C)c1N1C(Cn2nc(-c3ccc(OC(F)(F)F)cc3)c3c(N)ncnc32)=Nc2ccccc2S1(=O)=O [15i, 3-((4-Amino-3-(4-(trifluoromethoxy)phenyl)-1H-pyrazolo[3,4-d]pyrimidin-1-yl)methyl)-2-(2,6-dimethyl-phenyl)-2H-benzo[e][1,2,4]thiadiazine 1,1-dioxide] | > 1 | 206 to 207 | not tolerated | – |
| COc1ccc(-c2nn(CC3=Nc4ccccc4S(=O)(=O)N3c3c(C)cccc3C)c3ncnc(N)c23)cc1OC [15b, 3-((4-Amino-3-(3,4-dimethoxyphenyl)-1H-pyrazolo[3,4-d]pyrimidin-1-yl)methyl)-2-(2,6-dimethylphenyl)-2H-benzo[e][1,2,4]thiadiazine 1,1-dioxide] | 0.266 ± 0.031 | 220 to 222 | – | IC50 (PI3Kβ [1]): 24.2 ± 0.495 µM; selectivity for PI3Kδ over PI3Kβ (PI3Kβ [1]; ratio of IC50 values): > 90 fold; IC50 (PI3Kγ [2]): 5.84 ± 0.135 µM; GI50 (SU-DHL-6 cells): 2.5 ± 0.11 µM; SU-DHL-6 cell proliferation inhibition (in words) (SU-DHL-6 cells): significantly inhibited; also recorded: high antiproliferative potency; IC50 (PI3Kα [3]): 16.4 ± 0.768 µM; selectivity for PI3Kδ over PI3Kα (PI3Kα [3]; ratio of IC50 values): more than 60 fold |
| COc1ccc(-c2nn(CC3=Nc4ccccc4S(=O)(=O)N3c3c(C)cccc3C)c3ncnc(N)c23)cc1 [15g, 3-((4-Amino-3-(4-methoxyphenyl)-1H-pyrazolo[3,4-d]pyrimidin-1-yl)methyl)-2-(2,6-dimethylphenyl)-2H-benzo[e][1,2,4]thiadiazine 1,1-dioxide] | > 1 | – | not tolerated | – |
| COc1cccc(-c2nn(CC3=Nc4ccccc4S(=O)(=O)N3c3c(C)cccc3C)c3ncnc(N)c23)c1 [15h, 3-((4-Amino-3-(3-methoxyphenyl)-1H-pyrazolo[3,4-d]pyrimidin-1-yl)methyl)-2-(2,6-dimethylphenyl)-2H-benzo[e][1,2,4]thiadiazine 1,1-dioxide] | > 1 | – | not tolerated | – |
| Cc1cccc(C)c1N1C(Cn2nc(-c3ccccc3)c3c(N)ncnc32)=Nc2ccccc2S1(=O)=O [15j, 3-((4-Amino-3-phenyl-1H-pyrazolo[3,4-d]pyrimidin-1-yl)methyl)-2-(2,6-dimethylphenyl)-2H-benzo[e]-[1,2,4]thiadiazine 1,1-dioxide] | > 1 | – | not tolerated | – |
| COc1ccc(-c2nn(CC3=Nc4ccc(F)cc4S(=O)(=O)N3c3c(C)cccc3C)c3ncnc(N)c23)cc1F [16c, 3-((4-Amino-3-(3-fluoro-4-methoxyphenyl)-1H-pyrazolo[3,4-d]pyrimidin-1-yl)methyl)-2-(2,6-dimethyl-phenyl)-7-fluoro-2H-benzo[e][1,2,4]thiadiazine 1,1-dioxide] | 0.824 ± 0.076 | 201 to 202 | slight increase in potency | – |
| Cc1cccc(C)c1-n1c(Cn2nc(-c3ccc4[nH]ccc4c3)c3c(N)ncnc32)nc2cccc(F)c2c1=O [compound 3] | – | – | – | selectivity for PI3Kδ over PI3Kγ (PI3Kγ [4]): > 40 fold; selectivity for PI3Kδ over PI3Kα (PI3Kα [5]): more than 3630 fold; selectivity for PI3Kδ over PI3Kβ (PI3Kβ [6]): > 390 fold |
| COc1ccc(-c2nn(CC3=Nc4ccccc4S(=O)(=O)N3c3c(C)cccc3C)c3ncnc(N)c23)cc1F [15c, 3-((4-Amino-3-(3-fluoro-4-methoxyphenyl)-1H-pyrazolo[3,4-d]pyrimidin-1-yl)methyl)-2-(2,6-dimethyl-phenyl)-2H-benzo[e][1,2,4]thiadiazine 1,1-dioxide] | 0.98 ± 0.045 | – | marginal activity | – |
| COc1ccc(-c2nn(CC3=Nc4ccc(F)cc4S(=O)(=O)N3c3c(C)cccc3C)c3ncnc(N)c23)cn1 [16d, 3-((4-Amino-3-(6-methoxypyridin-3-yl)-1H-pyrazolo[3,4-d]pyrimidin-1-yl)methyl)-2-(2,6-dimethylphenyl)-7-fluoro-2H-benzo[e][1,2,4]thiadiazine 1,1-dioxide] | 0.823 ± 0.069 | – | – | decrease in PI3Kδ potency on introduction of 7-fluorine (PI3Kδ): ~2 fold |
| Cc1cccc(C)c1N1C(Cn2nc(-c3ccc4c(c3)OCCO4)c3c(N)ncnc32)=Nc2ccccc2S1(=O)=O [15e, 3-((4-Amino-3-(2,3-dihydrobenzo[b][1,4]dioxin-6-yl)-1H-pyrazolo[3,4-d]pyrimidin-1-yl)methyl)-2-(2,6-dimethylphenyl)-2H-benzo[e][1,2,4]thiadiazine 1,1-dioxide] | > 1 | 225 to 226 | not tolerated | – |
| COc1ccc(-c2nn(Cc3nc4cccc(F)c4c(=O)n3-c3c(C)cccc3C)c3ncnc(N)c23)cc1OC [compound 4] | – | – | – | selectivity for PI3Kδ over PI3Kγ (PI3Kγ [4]): 7 fold; selectivity for PI3Kδ over PI3Kα (PI3Kα [5]): more than 1400 fold; selectivity for PI3Kδ over PI3Kβ (PI3Kβ [6]): > 820 fold |
